Among the data in patent US7381824B2 (Agouron Pharmaceuticals, Inc., priority 2003, dated 2008) are IC50 and Ki values, retold here.

A value given as a limit tells only on which side of the number the result lay.

The subject of assay [1] is human umbilical vein endothelial cells (HUVEC). Nature of the assay: HUVEC+VEGF proliferation assay. Format: cell-based. The settings on record: VEGF-stimulated HUVEC proliferation, MTT, 72 hours. Here is the method:
HUVEC+VEGF Proliferation Assay
This assay determines the ability of a test compound to inhibit the growth factor-stimulated proliferation of human umbilical vein endothelial cells (“HUVEC”). HUVEC cells (passage 3-4, Clonetics, Corp.) were thawed into EGM2 culture medium (Clonetics Corp) in T75 flasks. Fresh EGM2 medium was added to the flasks 24 hours later. Four or five days later, cells were exposed to another culture medium (F12K medium supplemented with 10% fetal bovine serum (FBS), […] endothelial cell growth supplement (ECGS), and 0.1 mg/mL heparin). Exponentially-growing HUVEC cells were used in experiments thereafter. Ten to twelve thousand HUVEC cells were plated in 96-well dishes in […] of rich, culture medium (described above). The cells were allowed to attach for 24 hours in this medium. The medium was then removed by aspiration and […] of starvation media (F12K+1% FBS) was added to each well. After 24 hours, […] of test agent dissolved in 1% DMSO in starvation medium or this vehicle alone was added into each treatment well; the final DMSO concentration was 0.1%. One hour later, […] of VEGF (30 ng/mL) in starvation media was added to all wells except those containing untreated controls; the final VEGF concentration was 6 ng/mL. Cellular proliferation was quantified 72 hours later by MTT dye reduction, at which time cells were exposed for 4 hours MTT (Promega Corp.). Dye reduction was stopped by addition of a stop solution (Promega Corp.) and absorbance at 595 nm was determined on a 96-well spectrophotometer plate reader.

Assay [2] deals with T1, human vascular endothelial growth factor receptor 2 (VEGF-R2) (Homo sapiens, UniProt P35968, DEL940-989/E990V).
T1 construct: VEGF-R2D50 contains residues 806-939 and 990-1171; made in house; host or cells: baculovirus/insect cell system
Briefly: VEGF-R2 coupled spectrophotometric assay (FLVK, unphosphorylated VEGF-R2D50). Format: biochemical. The settings on record: unphosphorylated VEGF-R2D50 (FLVK). An excerpt:
This construct determines the ability of a test compound to inhibit tyrosine kinase activity. A construct (VEGF-R2D50) of the cytosolic domain of human vascular endothelial growth factor receptor 2 (VEGF-R2) lacking the 50 central residues of the 68 residues of the kinase insert domain was expressed in a baculovirus/insect cell system. Of the 1356 residues of full-length VEGF-R2, VEGF-R2D50 contains residues 806-939 and 990-1171, and also one point mutation (E990V) within the kinase insert domain relative to wild-type VEGF-R2. Autophosphorylation of the purified construct was performed by incubation of the enzyme at a concentration of […] in the presence of 3 mM ATP and 40 mM MgCl2 in 100 mM HEPES, pH 7.5, containing 5% glycerol and 5 mM DTT, at 4° C. for 2 h. […] See Parast et al., Biochemistry, 37, 16788-16801 (1998).
VEGF-R2 Assay: Coupled Spectrophotometric (FLVK-P) Assay
The production of ADP from ATP that accompanies phosphoryl transfer was coupled to oxidation of NADH using phosphoenolpyruvate (PEP) and a system having pyruvate kinase (PK) and lactic dehydrogenase (LDH). The oxidation of NADH was monitored by following the decrease of absorbance at 340 nm (e340=6.22 cm^−1 mM^−1) using a Beckman DU 650 spectrophotometer. Assay conditions for phosphorylated VEGF-R2D50 (indicated as FLVK-P in the tables below) were the following: 1 mM PEP; […] NADH; 50 units of LDH/mL; 20 units of PK/mL; 5 mM DTT; 5.1 mM poly(E4Y1); 1 mM ATP; and 25 mM MgCl2 in 200 mM HEPES, pH 7.5. Assay conditions for unphosphorylated VEGF-R2D50 (indicated as FLVK in the tables) were the following: 1 mM PEP; […] NADH; 50 units of LDH/mL; 20 units of PK/mL; 5 mM DTT; 20 mM poly(E4Y1); 3 mM ATP; and 60 mM MgCl2 and 2 mM MnCl2 in 200 mM HEPES, pH 7.5. Assays were initiated with 5 to 40 nM of enzyme. K1 values were determined by measuring enzyme activity in the presence of varying concentrations of test compounds. The percent inhibition at 50 nM (% inhibition @ 50 nM) was determined by linear least-squares regression analysis of absorbance as a function of time. The binding inhibitions were fitted to equation as described by Morrison. The data were analyzed using Enzyme Kinetic and Kaleidagraph software.

T1 sequence (P35968 with tags, fused parts or gaps DEL940-989/E990V limits assumed): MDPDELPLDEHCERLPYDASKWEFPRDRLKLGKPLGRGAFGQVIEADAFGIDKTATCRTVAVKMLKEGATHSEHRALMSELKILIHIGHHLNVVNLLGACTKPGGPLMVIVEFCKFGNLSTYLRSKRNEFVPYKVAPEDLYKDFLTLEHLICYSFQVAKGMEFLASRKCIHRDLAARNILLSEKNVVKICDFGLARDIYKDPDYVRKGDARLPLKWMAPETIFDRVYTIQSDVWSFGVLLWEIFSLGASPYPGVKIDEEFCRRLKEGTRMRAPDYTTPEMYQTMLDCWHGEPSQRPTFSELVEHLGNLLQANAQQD

For `CNC(=O)c1c(C)oc2cc(Oc3ccnc4cc(-c5ccco5)ccc34)ccc12` [Example 13, 6-{[7-(2-furyl)quinolin-4-yl]oxy}-N,2-dimethyl-1-benzofuran-3-carboxamide], in assay [1] (Homo sapiens), the IC50 lay within 1 to 10 nM. Moreover, the Ki in assay [2] was less than 1 nM.

On to `CNC(=O)c1c(C)sc2cc(Oc3ccnc4cc(-c5cccnc5)ccc34)ccc12` [Example 14, N2dimethyl-6-[(7-pyridin-3-ylquinolin-4-yl)oxy]-1-benzothiophene-3-carboxamide], for which the IC50 in assay [1] (Homo sapiens) lay in the range of 1 to 10 nM. The compound further registered an inhibitory constant (Ki) in assay [2] of 1 to 10 nM.

As to `CNC(=O)c1c(C)oc2cc(Oc3ccnc4cc(Br)ccc34)ccc12` [Example 19, 6-[(7-bromoquinolin-4-yl)oxy]-N,2-dimethy-1-benzofuran-3-carboxamide], in assay [1] (Homo sapiens), the concentration for half-maximal inhibition (IC50) is 1 to 10 nM. This compound yielded an inhibitory constant (Ki) in assay [2] of 1 to 10 nM.

As for `CNC(=O)c1c(C)oc2cc(Oc3ccnc4cc(OC)ccc34)ccc12` [Example 29, 6-[(7-methoxyquinoline-4-yl)oxy]-N,2-dimethyl-1-benzofuran-3-carboxamide], the IC50 in assay [1] (Homo sapiens) lay within 1 to 10 nM. The compound further came in with a Ki in assay [2] of less than 1 nM.

Turning to `CNC(=O)c1c(C)sc2cc(Oc3ccnc4cc(-c5ccccn5)ccc34)ccc12` [Example 31], the IC50 in assay [1] was less than 1 nM. Also, the inhibition constant Ki in assay [2] lay within 1 to 10 nM.

For the compound `CNC(=O)c1c(C)oc2cc(Oc3ccnc4cc(OCCN5CCOCC5)ccc34)ccc12` [Example 36, N,2-dimethyl-6-{[7-(2-morpholin-4-ylethoxy)quinolin-4-yl]oxy)-1-benzofuran-3-carboxamide], the IC50 in assay [1] (Homo sapiens) is less than 1 nM. The same compound registered an inhibitory constant (Ki) in assay [2] of 1 to 10 nM.

Regarding `CNC(=O)c1c(C)oc2cc(Oc3ccnc4cc(OCCN(C)C)ccc34)ccc12` [Example 37, 6-({7-[2-(dimethylamino)ethoxy]quinolin-4-yl}oxy)-N,2-dimethyl-1-benzofuran-3-carboxamide], the IC50 in assay [1] (Homo sapiens) is less than 1 nM. For the same compound, in assay [2], the Ki lay in the range of 1 to 10 nM.

Regarding `CNC(=O)c1c(C)oc2cc(Oc3ccnc4cc(OCCN5CCCCC5)ccc34)ccc12` [Example 38, N,2-dimethyl-6-{[7-(2-piperidin-1-ylethoxy)quinolin-4-yl]oxy}-1-benzofuran-3-carboxamide], the IC50 in assay [1] (Homo sapiens) was less than 1 nM. The same compound registered a Ki in assay [2] of 1 to 10 nM.

Take `CCCCNC(=O)c1c(C)oc2cc(Oc3ccnc4cc(OCCN5CCCC5)ccc34)ccc12` [Example 44, N-butyl-2-methyl-6-{[7-(2-pyrrolidin-1-ylethoxy)quinolin-4-yl]oxy}-1-benzofuran-3-carboxamide]: the IC50 in assay [1] (Homo sapiens) is less than 1 nM. This compound yielded a Ki in assay [2] of 1 to 10 nM.

In the case of `CCCCNC(=O)c1c(C)oc2cc(Oc3ccnc4cc(OCCN5CCOCC5)ccc34)ccc12` [Example 45, N-butyl-2-methyl-6-{[7-(2-morpholin-4-ylethoxy)quinolin-4-yl]oxy}-1-benzofuran-3-carboxamide], the IC50 in assay [1] (Homo sapiens) lay in the range of 1 to 10 nM. Besides, the Ki in assay [2] was 1 to 10 nM.

Turning to `CCCCNC(=O)c1c(C)oc2cc(Oc3ccnc4cc(OCCN(C)C)ccc34)ccc12` [Example 46, N-butyl-6-({7-[2-(dimethylamino)ethoxy]quinolin-4-yl}oxy)-2-methyl-1-benzofuran-3-carboxamide], the IC50 in assay [1] (Homo sapiens) was less than 1 nM. The same compound came in with a Ki in assay [2] of 1 to 10 nM.

With `CCCCNC(=O)c1c(C)oc2cc(Oc3ccnc4cc(OCCN5CCCCC5)ccc34)ccc12` [Example 47, N-butyl-2-methyl-6-{[7-(2-piperidin-1-ylethoxy)quinolin-4-yl]oxy}-1-benzofuran-3-carboxamide], in assay [1] (Homo sapiens), the IC50 is less than 1 nM. Moreover, in assay [2], the Ki was in the range of 1 to 10 nM.

As to `COc1ccc2c(Oc3ccc4c(C(=O)NC5CC5)c(C)sc4c3)ccnc2c1` [Example 48, N-cyclopropyl-6-[(7-methoxyquinolin-4-yl)oxy]-2-methyl-1-benzothiophene-3-carboxamide], the 50% inhibitory concentration (IC50) in assay [1] (Homo sapiens) is 1 to 10 nM. This compound displayed a Ki in assay [2] of 1 to 10 nM.

As for `CCCNC(=O)c1c(C)sc2cc(Oc3ccnc4cc(OC)ccc34)ccc12` [Example 50, [(7-methoxyquinolin-4-yl)oxy]-2-methyl-N-propyl-1-benzothiophene-3-carboxamide], in assay [1] (Homo sapiens), the IC50 lay within 1 to 10 nM. The compound also yielded an inhibitory constant (Ki) in assay [2] of 1 to 10 nM.

Consider `COc1ccc2c(Oc3ccc4c(C(=O)NCCCN(C)C)c(C)sc4c3)ccnc2c1` [Example 51, N-[3-(dimethylamino)propyl]-6-[(7-methoxyquinolin-4-yl)oxy]-2-methyl-1-benzothiophene-3-carboxamide], for which the IC50 in assay [1] (Homo sapiens) is 1 to 10 nM. In assay [2], the Ki is greater than 10 nM.

`COc1ccc2c(Oc3ccc4c(C(=O)NC5CCCCC5)c(C)sc4c3)ccnc2c1` [Example 52, N-cyclohexyl-6-[(7-methoxyquinolin-4-yl)oxy]-2-methyl-1-benzothiophene-3-carboxamide]: the IC50 in assay [1] (Homo sapiens) was 1 to 10 nM. The same compound had a Ki in assay [2] of 1 to 10 nM.

`COc1ccc2c(Oc3ccc4c(C(=O)NC5CCCC5)c(C)sc4c3)ccnc2c1` [Example 53, N-cyclopentyl-6-[(7-methoxyquinolin-4-yl)oxy]-2-methyl-1-benzothiophene-3-carboxamide]: the IC50 in assay [1] (Homo sapiens) was in the range of 1 to 10 nM. Moreover, in assay [2], the Ki was in the range of 1 to 10 nM.

Regarding `COc1ccc2c(Oc3ccc4c(C(=O)NCc5ccccn5)c(C)oc4c3)ccnc2c1` [Example 66, 6-[(7-methoxyquinolin-4-yl)oxy]-2-methyl-N-(pyridin-2-ylmethyl)-1-benzofuran-3-carboxamide], the IC50 in assay [1] (Homo sapiens) is 1 to 10 nM. This compound also displayed a Ki in assay [2] greater than 10 nM.

For `COc1ccc2c(Oc3ccc4c(C(=O)NCCCO)c(C)oc4c3)ccnc2c1` [Example 67, N-(3-hydroxypropyl)-6-[(7-methoxyquinolin-4-yl)oxy]-2-methyl-1-benzofuran-3-carboxamide], in assay [1] (Homo sapiens), the IC50 lay in the range of 1 to 10 nM. This compound also showed a Ki in assay [2] of 1 to 10 nM.

For `Cc1oc2cc(Oc3ccnc4cc(OC(F)(F)F)ccc34)ccc2c1C(=O)NC1CC1` [Example 73, N-cyclopropyl-2-methyl-6-{[7-(trifluoromethoxy)quinolin-4-yl]oxy}-1-benzofuran-3-carboxamide], the IC50 in assay [1] (Homo sapiens) is 1 to 10 nM. In assay [2], this compound returned an inhibition constant (Ki) of 1 to 10 nM.

As for `COc1ccc2c(Oc3ccc4c(C(=O)NC[C@H]5CCCO5)c(C)oc4c3)ccnc2c1` [Example 84, 6-[(7-methoxyquinolin-4-yl)oxy]-2-methyl-N-[(2R)tetrahydrofuran-2-ylmethyl]-1-benzofuran-3-carboxamide], the IC50 in assay [1] (Homo sapiens) was in the range of 1 to 10 nM. This compound displayed a Ki in assay [2] of 1 to 10 nM.

As to `CCOCCNC(=O)c1c(C)oc2cc(Oc3ccnc4cc(OC)ccc34)ccc12` [Example 86, 6-[(7-methoxyquinolin-4-yl)oxy]-2-methyl-N-[ethoxy-ethyl]-1-benzofuran-3-carboxamide], the half-inhibitory concentration (IC50) in assay [1] (Homo sapiens) fell in the range of 1 to 10 nM. This compound also showed a Ki in assay [2] of 1 to 10 nM.

Regarding `COCCNC(=O)c1c(C)oc2cc(Oc3ccnc4cc(OC)ccc34)ccc12` [Example 88, N-(2-methoxyethyl)-6-[(7-methoxyquinolin-4-yl)oxy]-2-methyl-1-benzofuran-3-carboxamide], the 50% inhibitory concentration (IC50) in assay [1] (Homo sapiens) fell in the range of 1 to 10 nM. Besides, the Ki in assay [2] lay in the range of 1 to 10 nM.
